Test results as given in patent US10092570B2 (Incyte Corporation, priority 2011, dated 2018).

Target: PI3Kδ (p110δ/p85α) (Homo sapiens (Human), UniProt O00329)
Assay: Example A3: PI3Kδ scintillation proximity assay
Format: biochemical
Settings: scintillation proximity assay, 20 μM ATP, 4 nM PI3Kδ; read-out: PI3Kδ SPA IC50
Summary of the method: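 p110δ/p85α (4 nM) phosphorylated 20 μM PIP2 with 20 μM ATP plus [γ-33P]ATP in MOPS pH 6.7, MgCl2, DTT, CHAPS, 0.5% DMSO, at RT. Stopped with EDTA/excess ATP, product captured on WGA SPA beads overnight and counted; IC50 from percent control activity versus log inhibitor.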

Sequence of PI3Kδ (p110δ/p85α) (O00329 whole entry): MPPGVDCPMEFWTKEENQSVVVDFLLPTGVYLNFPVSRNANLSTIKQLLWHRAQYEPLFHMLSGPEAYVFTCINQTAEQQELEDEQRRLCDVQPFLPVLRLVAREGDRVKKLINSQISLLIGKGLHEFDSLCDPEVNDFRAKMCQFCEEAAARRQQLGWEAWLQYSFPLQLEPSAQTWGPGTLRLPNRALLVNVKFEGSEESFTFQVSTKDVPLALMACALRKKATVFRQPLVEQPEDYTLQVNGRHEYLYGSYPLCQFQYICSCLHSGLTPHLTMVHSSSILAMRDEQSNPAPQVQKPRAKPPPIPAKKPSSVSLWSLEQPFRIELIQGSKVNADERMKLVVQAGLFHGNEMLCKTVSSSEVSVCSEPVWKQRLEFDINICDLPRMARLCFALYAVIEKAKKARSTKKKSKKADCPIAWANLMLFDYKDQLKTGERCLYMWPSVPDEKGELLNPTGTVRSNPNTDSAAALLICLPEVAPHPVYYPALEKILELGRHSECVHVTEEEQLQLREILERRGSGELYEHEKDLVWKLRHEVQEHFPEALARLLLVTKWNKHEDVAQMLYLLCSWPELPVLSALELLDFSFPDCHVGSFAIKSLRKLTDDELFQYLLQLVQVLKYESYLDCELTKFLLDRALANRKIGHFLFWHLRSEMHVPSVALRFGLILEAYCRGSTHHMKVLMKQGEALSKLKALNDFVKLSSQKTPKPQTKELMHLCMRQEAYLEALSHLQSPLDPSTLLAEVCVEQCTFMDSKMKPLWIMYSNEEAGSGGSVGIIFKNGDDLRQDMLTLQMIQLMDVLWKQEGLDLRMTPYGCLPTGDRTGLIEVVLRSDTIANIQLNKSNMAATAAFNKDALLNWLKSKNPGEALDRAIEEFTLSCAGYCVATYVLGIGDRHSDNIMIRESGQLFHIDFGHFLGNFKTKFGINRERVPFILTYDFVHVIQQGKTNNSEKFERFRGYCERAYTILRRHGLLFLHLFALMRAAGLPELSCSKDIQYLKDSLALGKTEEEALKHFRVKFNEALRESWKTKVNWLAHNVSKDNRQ
Sequence of PI3Kδ (p110δ/p85α) (P27986 whole entry partner): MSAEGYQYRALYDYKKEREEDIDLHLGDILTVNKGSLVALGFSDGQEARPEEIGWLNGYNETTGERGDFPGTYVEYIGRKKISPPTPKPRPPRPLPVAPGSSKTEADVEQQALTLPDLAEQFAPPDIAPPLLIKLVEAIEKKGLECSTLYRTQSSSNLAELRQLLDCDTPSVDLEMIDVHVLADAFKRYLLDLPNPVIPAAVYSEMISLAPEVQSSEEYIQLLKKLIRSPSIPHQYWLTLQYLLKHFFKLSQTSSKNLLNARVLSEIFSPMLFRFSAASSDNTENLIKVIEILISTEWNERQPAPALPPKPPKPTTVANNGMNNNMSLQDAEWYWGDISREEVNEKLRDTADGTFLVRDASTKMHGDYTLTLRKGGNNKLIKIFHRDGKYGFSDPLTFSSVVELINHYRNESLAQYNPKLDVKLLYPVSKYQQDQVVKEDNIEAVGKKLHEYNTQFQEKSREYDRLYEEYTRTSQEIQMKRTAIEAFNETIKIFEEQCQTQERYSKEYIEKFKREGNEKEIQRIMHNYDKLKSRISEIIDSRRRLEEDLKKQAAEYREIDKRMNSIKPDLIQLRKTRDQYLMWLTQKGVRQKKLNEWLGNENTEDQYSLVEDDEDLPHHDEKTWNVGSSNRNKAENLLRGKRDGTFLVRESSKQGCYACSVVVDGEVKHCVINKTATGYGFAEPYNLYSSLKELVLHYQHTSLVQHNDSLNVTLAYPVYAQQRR

Row | SMILES | IC50
1 | COc1c(C(C)n2nc(C)c3c(N)ncnc32)cc(Cl)c(C)c1C1CN(CC#N)C1 (single isomer, unassigned) [Example 105, (3-{3-[1-(4-Amino-3-methyl-1H-pyrazolo[3,4-d]pyrimidin-1-yl)ethyl]-5-chloro-2-methoxy-6-methylphenyl}azetidin-1-yl)acetonitrile] | < 0.01 µM
2 | COc1c(C(C)n2nc(C)c3c(N)ncnc32)cc(Cl)c(C)c1C1CN(C2CCOCC2)C1 (racemic) [Example 64, 1-(1-{5-chloro-2-methoxy-4-methyl-3-[1-(tetrahydro-2H-pyran-4-yl)azetidin-3-yl]phenyl}ethyl)-3-methyl-1H-pyrazolo[3,4-d]pyrimidin-4-amine] | < 0.01 µM
3 | CCNC(=O)c1c(C)c(Cl)cc(C(C)n2nc(-c3cc(O)cc(F)c3)c3c(N)ncnc32)c1OCC (racemic) [Example 88, 3-{1-[4-Amino-3-(3-fluoro-5-hydroxyphenyl)-1H-pyrazolo[3,4-d]pyrimidin-1-yl]ethyl}-5-chloro-2-ethoxy-N-ethyl-6-methylbenzamide] | < 0.01 µM
4 | COc1c(C(C)n2nc(C)c3c(N)ncnc32)cc(Cl)c(C)c1C1CN(C(=O)c2cnn(C)c2)C1 (single isomer, unassigned) [Example 117, 1-[1-(5-Chloro-2-methoxy-4-methyl-3-{1-[(1-methyl-1H-pyrazol-4-yl)carbonyl]azetidin-3-yl}phenyl)ethyl]-3-methyl-1H-pyrazolo[3,4-d]pyrimidin-4-amine] | < 0.01 µM
5 | CCOc1c(C(C)n2nc(C#C[C@@H](C)O)c3c(N)ncnc32)cc(Cl)c(C)c1-c1ccc(C(=O)N(C)C)nc1 (stereo partly drawn) [Example 79, 5-[3-(1-{4-Amino-3-[(3R)-3-hydroxybut-1-yn-1-yl]-1H-pyrazolo[3,4-d]pyrimidin-1-yl}ethyl)-5-chloro-2-ethoxy-6-methylphenyl]-N,N-dimethylpyridine-2-carboxamide bis(trifluoroacetate)] | < 0.01 µM
6 | COc1c(C(C)n2nc(C)c3c(N)ncnc32)cc(Cl)c(C)c1C1CN(C2CCOC2)C1 (stereo not drawn) [Example 107, 1-(1-{5-Chloro-2-methoxy-4-methyl-3-[1-(tetrahydrofuran-3-yl)azetidin-3-yl]phenyl}ethyl)-3-methyl-1H-pyrazolo[3,4-d]pyrimidin-4-amine] | < 0.01 µM
7 | CCNC(=O)c1c(C)c(Cl)cc(C(C)n2nc(-c3ccc4nc(N)sc4c3)c3c(N)ncnc32)c1OCC (racemic) [Example 90, 3-{1-[4-Amino-3-(2-amino-1,3-benzothiazol-6-yl)-1H-pyrazolo[3,4-d]pyrimidin-1-yl]ethyl}-5-chloro-2-ethoxy-N-ethyl-6-methylbenzamide] | < 0.01 µM
8 | CCOc1c(C(C)n2nc(C#C[C@H](C)O)c3c(N)ncnc32)cc(Cl)c(C)c1-c1ccc(C(=O)N(C)C)nc1 (stereo partly drawn) [Example 80, 5-[3-(1-{4-Amino-3-[(3S)-3-hydroxybut-1-yn-1-yl]-1H-pyrazolo[3,4-d]pyrimidin-1-yl}ethyl)-5-chloro-2-ethoxy-6-methylphenyl]-N,N-dimethylpyridine-2-carboxamide bis(trifluoroacetate)] | < 0.01 µM
9 | CCOc1c(C(C)n2ccc(=O)c3c(N)ncnc32)cc(Cl)c(C#N)c1-c1ccc(C(=O)N(C)C)nc1 (racemic) [Example 45, 5-{3-[1-(4-amino-5-oxopyrido[2,3-d]pyrimidin-8(5H)-yl)ethyl]-5-chloro-6-cyano-2-ethoxyphenyl}-N,N-dimethylpyridine-2-carboxamide] | < 0.01 µM
10 | COc1c(C(C)n2ccc(=O)c3c(N)ncnc32)cc(Cl)c(C)c1C1CN(C(C)C)C1 (racemic) [Example 34, 4-Amino-8-{1-[5-chloro-3-(1-isopropylazetidin-3-yl)-2-methoxy-4-methylphenyl]ethyl}pyrido[2,3-d]pyrimidin-5(8H)-one] | < 0.01 µM
11 | COc1c(C(C)n2nc(C)c3c(N)ncnc32)cc(Cl)c(C)c1-c1ccnc(C(=O)NCCO)c1 (racemic) [Example 18, 4-{3-[1-(4-Amino-3-methyl-1H-pyrazolo[3,4-d]pyrimidin-1-yl)ethyl]-5-chloro-2-methoxy-6-methylphenyl}-N-(2-hydroxyethyl)pyridine-2-carboxamide] | < 0.01 µM
12 | COc1c(C(C)n2nc(C)c3c(N)ncnc32)cc(Cl)c(C)c1C1CN(CC(C)C)C1 (racemic) [Example 7, 1-{1-[5-Chloro-3-(1-isobutylazetidin-3-yl)-2-methoxy-4-methylphenyl]ethyl}-3-methyl-1H-pyrazolo[3,4-d]pyrimidin-4-amine] | < 0.01 µM
13 | CCOc1c(C(C)n2nc(C)c3c(N)ncnc32)cc(Cl)c(C)c1C1CN(C[C@@H](C)O)C1 (stereo partly drawn) [Example 97, (2R)-1-(3-{3-[1-(4-Amino-3-methyl-1H-pyrazolo[3,4-d]pyrimidin-1-yl)ethyl]-5-chloro-2-ethoxy-6-methylphenyl}azetidin-1-yl)propan-2-ol] | < 0.01 µM
14 | CCOc1c(C(C)n2ccc(=O)c3c(N)ncnc32)cc(Cl)c(C#N)c1-c1cncc(S(C)(=O)=O)c1 (racemic) [Example 46, 4-(1-(4-amino-5-oxopyrido[2,3-d]pyrimidin-8(5H)-yl)ethyl)-6-chloro-3-ethoxy-2-(5-(methylsulfonyl)pyridin-3-yl)benzonitrile] | < 0.01 µM

Second part, the compound after the results:

Row | IC50 | SMILES
15 | < 0.01 µM | COc1c(C(C)n2nc(C)c3c(N)ncnc32)cc(Cl)c(C)c1C1CN([C@@H](C)C(=O)N(C)C)C1 (stereo partly drawn) [Example 160, (2S)-2-(3-{3-[1-(4-Amino-3-methyl-1H-pyrazolo[3,4-d]pyrimidin-1-yl)ethyl]-5-chloro-2-methoxy-6-methylphenyl}azetidin-1-yl)-N,N-dimethylpropanamide]
16 | < 0.01 µM | COc1c(C(C)n2nc(C)c3c(N)ncnc32)cc(Cl)c(C#N)c1C1CN(S(=O)(=O)C(C)C)C1 (single isomer, unassigned) [Example 287, 4-[1-(4-Amino-3-methyl-1H-pyrazolo[3,4-d]pyrimidin-1-yl)ethyl]-6-chloro-2-[1-(isopropylsulfonyl)azetidin-3-yl]-3-methoxybenzonitrile]
17 | < 0.01 µM | COc1c(C(C)n2cc(-c3cn[nH]c3)c(=O)c3c(N)ncnc32)cc(Cl)c(C)c1-c1ccc(C(=O)N(C)C)nc1 (stereo not drawn) [Example 359, 5-(3-{1-[4-Amino-5-oxo-6-(1H-pyrazol-4-yl)pyrido[2,3-d]pyrimidin-8(5H)-yl]ethyl}-5-chloro-2-methoxy-6-methylphenyl)-N,N-dimethylpyridine-2-carboxamide]
18 | < 0.01 µM | COc1c(C(C)n2nc(C)c3c(N)ncnc32)cc(Cl)c(C)c1-c1cnn(C2CCN(C)CC2)c1 (single isomer, unassigned) [Example 181, 1-(1-(5-Chloro-2-methoxy-4-methyl-3-(1-(1-methylpiperidin-4-yl)-1H-pyrazol-4-yl)phenyl)ethyl)-3-methyl-1H-pyrazolo[3,4-d]pyrimidin-4-amine]
19 | < 0.01 µM | CCOc1c(C(C)n2nc(C)c3c(N)ncnc32)cc(Cl)c(C)c1-c1cnn(C)c1 (single isomer, unassigned) [Example 197, 1-(1-(5-chloro-2-ethoxy-4-methyl-3-(1-methyl-1H-pyrazol-4-yl)phenyl)ethyl)-3-methyl-1H-pyrazolo[3,4-d]pyrimidin-4-amine]
20 | < 0.01 µM | CCOc1c(C(C)n2nc(C)c3c(N)ncnc32)cc(C)c(C#N)c1C1CN(C(C)C)C1 (racemic) [Example 320, 4-[1-(4-amino-3-methyl-1H-pyrazolo[3,4-d]pyrimidin-1-yl)ethyl]-3-ethoxy-2-(1-isopropylazetidin-3-yl)-6-methylbenzonitrile]
21 | < 0.01 µM | COc1c(C(C)n2nc(C)c3c(N)ncnc32)cc(Cl)c(C)c1C1CN([C@H](C)C(=O)N(C)C)C1 (stereo partly drawn) [Example 159, (2R)-2-(3-{3-[1-(4-Amino-3-methyl-1H-pyrazolo[3,4-d]pyrimidin-1-yl)ethyl]-5-chloro-2-methoxy-6-methylphenyl}azetidin-1-yl)-N,N-dimethylpropanamide]
22 | < 0.01 µM | CCOc1c(C(C)n2nc(C)c3c(N)ncnc32)cc(Cl)c(C#N)c1N1CC(C#N)C1 (racemic) [Example 342, 1-{3-[1-(4-amino-3-methyl-1H-pyrazolo[3,4-d]pyrimidin-1-yl)ethyl]-5-chloro-6-cyano-2-ethoxyphenyl}azetidine-3-carbonitrile]
23 | < 0.01 µM | COc1c(C(C)n2nc(C)c3c(N)ncnc32)cc(Cl)c(C#N)c1C1CN(C(C)CO)C1 (single isomer, unassigned) [Example 273, 4-[1-(4-amino-3-methyl-1H-pyrazolo[3,4-d]pyrimidin-1-yl)ethyl]-6-chloro-2-[1-(2-hydroxy-1-methylethyl)azetidin-3-yl]-3-methoxybenzonitrile]
24 | < 0.01 µM | COc1c(C(C)n2nc(C(F)F)c3c(N)ncnc32)cc(C#N)c(C)c1C1CN(C(C)C)C1 (racemic) [Example 128, 5-{1-[4-amino-3-(difluoromethyl)-1H-pyrazolo[3,4-d]pyrimidin-1-yl]ethyl}-3-(1-isopropylazetidin-3-yl)-4-methoxy-2-methylbenzonitrile]
25 | < 0.01 µM | COc1c(C(C)n2cc(C)c(=O)c3c(N)ncnc32)cc(Cl)c(C)c1-c1ccc(C(=O)N(C)C)nc1 (stereo not drawn) [Example 360, 5-{3-[1-(4-Amino-6-methyl-5-oxopyrido[2,3-d]pyrimidin-8(5H)-yl)ethyl]-5-chloro-2-methoxy-6-methylphenyl}-N,N-dimethylpyridine-2-carboxamide bis(trifluoroacetate)]
26 | < 0.01 µM | COc1c(C(C)n2nc(C)c3c(N)ncnc32)cc(Cl)c(C)c1C1CN(C(=O)[C@H](C)O)C1 (single isomer, unassigned) [Example 118]
27 | < 0.01 µM | CCOc1c(C(C)n2nc(C)c3c(N)ncnc32)cc(Cl)c(C#N)c1N1CCCC1 (racemic) [Example 318, 4-[1-(4-amino-3-methyl-1H-pyrazolo[3,4-d]pyrimidin-1-yl)ethyl]-6-chloro-3-ethoxy-2-pyrrolidin-1-ylbenzonitrile]
